Data from US20240254156A1, “NOVEL ISOFLAVONE COMPOUND” (NABOCUL COSMETICS CO., LTD., priority 2021, published 2024).

Columns and labels:
[1] = system: IL-6 production in RAW264.7 cells; assay: LPS-induced IL-6 production in RAW264.7 cells (ELISA); format: cell-based, mouse; conditions: 1, 5, 10, 50 and 100 μM, added 3 h before LPS 1 μg/mL, supernatant after 24 h, FIG. 11
Procedure: The Ceratonia siliqua C obtained in Example 2 was used to examine the effect of the Ceratonia siliqua C on the production of IL-6 that is an inflammatory cytokine.
In this test, an RAW264.7 cell, a mouse macrophage-derived cell line was used. RAW264.7 cells were cultured in a DMEM medium (containing 10% FBS, 100 U/mL penicillin and […] streptomycin) in the presence of 5% CO2 at 37° C. and saturated humidity.
Each well of a 96-well plate was seeded with 8×10^3 RAW264.7 cells, and the cells were cultured in a CO2 incubator for 24 hours. This was divided into a blank control group, a positive control group and a test group. A 100 μL portion of a DMEM medium was added to each well of the blank control group; a 100 μL portion of a solution of dexamethasone (DXM) dissolved in the DMEM medium was added to each well of the positive control group (a final concentration of dexamethasone: 20 μM); and a 100 μL portion of each of solutions obtained by appropriately diluting the Ceratonia siliqua C with the DMEM medium was added to each well of the test group to provide a different concentration from each other (final concentration: 1 μM, 5 μM, 10 μM, 50 μM and 100 μM). 3 hours later, LPS (1 μg/mL) was added to each well to induce inflammation. 24 hours later, the supernatant was collected and the IL-6 content in the supernatant was measured with an IL-6 quantitative ELISA kit. […]

aquaporin 3 (AQP3) gene = assay: aquaporin 3 gene mRNA expression in HaCaT cells (QPCR); format: cell-based, human
Procedure: (§1) The Ceratonia siliqua C obtained in Example 2 was used to examine the effect of the Ceratonia siliqua C on the expression of aquaporin 3 (AQP3) gene and filaggrin 2 (FLG2) gene in a HaCaT cell, a human epidermis-derived keratinocyte cell line.
(§2) First, the HaCaT cells were cultured in a DMEM medium (containing 10% FBS, 100 U/mL penicillin and […] streptomycin) in the presence of 5% CO2 at 37° C. and saturated humidity. Next, the HaCaT cells adjusted to a cell concentration of 5×10^5 cells/mL were seeded in each well of a 6-well cell culture plate and cultured in a CO2 incubator (5% CO2, 37° C.) for 24 hours. Thereafter, the Ceratonia siliqua C isolated in Example 2 was added to each well to provide a final concentration different from each other. Specifically, the final concentrations of Ceratonia siliqua C in the HaCaT cell culture medium were 1 μM, 5 μM, 10 μM, 50 μM and 100 μM, respectively. A well without the Ceratonia siliqua C added was used as a control (0 μM). After addition, they were subjected to culture for 24 hours.
(§3) After completion of the culture, the HaCaT cells were collected from each well, and total RNA was extracted with an RNA extraction reagent (RNAzol®, a product available from Molecular Research Center, Inc.). […]

filaggrin 2 (FLG2) gene = assay: filaggrin 2 gene mRNA expression in HaCaT cells (QPCR); format: cell-based, human
Procedure: as §1, §2, §3

[2] = 10 μM (highest expression promoting effect), 24 h, relative to control

COc1ccc(-c2coc3c(OC)c(O)c(O[C@@H]4O[C@H](CO)[C@@H](O)[C@H](O)[C@H]4O)cc3c2=O)cc1 [Ceratonia siliqua C]
production of IL-6 by LPS induction [1]: inhibit the production of IL-6 in a concentration-dependent manner
increase of mRNA expression level of aquaporin 3 (aquaporin 3 (AQP3) gene; [2]): 2.5 times
mRNA expression level of aquaporin 3 compared to the control (aquaporin 3 (AQP3) gene; 1-100 μM, 24 h culture, FIG. 12): greatly increased the mRNA expression level
increase of mRNA expression level of filaggrin 2 (filaggrin 2 (FLG2) gene; [2]): 1.35 times
mRNA expression level of filaggrin 2 compared to the control (filaggrin 2 (FLG2) gene; 1-100 μM, 24 h culture, FIG. 13): greatly increased the mRNA expression level
